Reference: patent US11220534B2, “Treatment of neurological diseases” (Lancaster University Business Enterprises Limited, priority 2016, dated 2022)
Where no end group is shown, it is not given here. [ ]: non-standard residue; d: D form. Aib = CC(C)(N)C(=O)O

Key:
[1] = tested on: APP/PS1 mice; assay: Classical Morris water maze test; assay type: in vivo
Description: Materials and methods in Example 2 are the same as Example 1 except when stated. Reagents used in Example 2 only include antibodies to p-PI3Kp85, PI3Kp85, p-Akt (ser473), Akt, p-GSK3β (Y216), and GSK3β from Abcam, Inc. Cambridge, UK. The antibody to p-tau (AT8) from Thermo Scientific USA. Mouse Anti-β-actin, Anti-Rabbit IgG, Anti-mouse IgG, CY3-Anti-mouse IgG, RIPA Lysate, BCA Protein Assay Kit, DAPI staining solution and Anti-fluorescence decay agent from Boster (Wuhan, China).
Classical Morris water maze (MWM) test was used to investigate spatial reference memory of mouse. The water maze mainly included a stainless steel pool and a platform in the pool for escape. There were several landmarks fixed to the walls of the water maze. The pool was filled with tap water at 22±2° C. The first phase was acquisition trial phase which was consisted of five training days (days 1-5) and four trials each day. The pool (diameter, 120 cm; high, 50 cm) was divided into four quadrants and the escape platform (diameter, 12 cm) hidden 1 cm beneath the water surface was placed in the center of the first quadrant. […] The escape latencies were recorded by Ethovision 3.0 software system (Noldus Information Technology, the Netherlands). […] The percentage of swimming time in target quadrant (the first quadrant) and frequency of platform crossing were recorded. […] Swimming time to target was recorded.

[2] = tested on: APP/PS1 mice; assay: In vivo hippocampal measurements of L-LTP in AD mice; conditions: N=6 per group
Description: Materials and methods in Example 2 are the same as Example 1 except when stated. Reagents used in Example 2 only include antibodies to p-PI3Kp85, PI3Kp85, p-Akt (ser473), Akt, p-GSK3β ([…]), and GSK3β from Abcam, Inc. Cambridge, UK. The antibody to p-tau (AT8) from Thermo Scientific USA. Mouse Anti-β-actin, Anti-Rabbit IgG, Anti-mouse IgG, CY3-Anti-mouse IgG, RIPA Lysate, BCA Protein Assay Kit, DAPI staining solution and Anti-fluorescence decay agent from Boster (Wuhan, China). Mice were anesthetized with urethane (Sigma, UK, 1.5 g/kg, i.p.) and placed in a stereotaxic apparatus (RWD Life Science, China) for L-LTP recording. Cut off the scalp and expose the skull, small holes were drilled on one side of the skull (2.0 mm posterior to bregma and 1.5 mm lateral to the midline). […] Baseline fEPSPs were elicited by test stimuli at an interval of 30 seconds and 30 minutes fEPSPs were recorded to observe whether the underlying synaptic transmission is affected. […] The change in PPF ratio, calculated by dividing the slope of the second fEPSP by the slope of the first fEPSP, is viewed to be related with the changes in neurotransmitter release from presynaptic terminals. […] The fEPSPs were recorded for 180 minutes after HFS. All events were recorded by a biological signal processing system (Chengdu Instruments Ltd, China). […]

[3] = tested on: APP/PS1 mice; assay: Immunostaining for phosphorylated tau protein in the hippocampus; assay type: in vivo; conditions: APP/PS1 mice vs APP/PS1-saline; FIG. 10; N=4 per group
Description: Materials and methods in Example 2 are the same as Example 1 except when stated. Reagents used in Example 2 only include antibodies to p-PI3Kp85, PI3Kp85, p-Akt (ser473), Akt, p-GSK3β ([…]), and GSK3β from Abcam, Inc. Cambridge, UK. The antibody to p-tau (AT8) from Thermo Scientific USA. Mouse Anti-β-actin, Anti-Rabbit IgG, Anti-mouse IgG, CY3-Anti-mouse IgG, RIPA Lysate, BCA Protein Assay Kit, DAPI staining solution and Anti-fluorescence decay agent from Boster (Wuhan, China). After in vivo hippocampal L-LTP recording, the mice were anesthetized with chloral hydrate (0.007 ml/g) by intraperitoneal injection and then the brain tissue was fixed with paraformaldehyde for 24 hours, after that the tissue was transferred to 30% sucrose solution for dehydration. The brain tissue was harvested, frozen in -80° C., and then sliced at a thickness of 30 μm, put the frozen section in PBS, blocked with normal goat serum (Solarbio, Beijing, China), followed by adding the primary antibody, second antibody and DAPI. Phosphorylated tau protein was observed by confocal laser scanning microscopy.

Substance: YXEGTFTSDYSIYLDKQAAXEFVNWLLAGGPSSGAPPPSKRRQRRKKRGY-NH2 (Y[Aib]EGTFTSDYSIYLDKQAA[Aib]EFVNWLLAGGPSSGAPPPSKRRQRRKKRGY-NH2) [DA5, No. 12; X=aminoisobutyric acid]
- probe test, recall of the escape route (classical Morris water maze) ([1]; APP/PS1 mice vs APP/PS1-saline, FIG. 7c, 7d): recalled the escape route to a greater extent than APP/PS1-saline mice
- disorder in spatial memory (classical Morris water maze) ([1]; APP/PS1 mice, FIG. 7, N=8-14 per group): ameliorated
- levels of L-LTP post neuronal stimuli ([2]; APP/PS1 mice, FIG. 9b): maintained high levels of L-LTP post neuronal stimuli
- depression of L-LTP in the hippocampus ([2]; APP/PS1 transgenic mice, pre-treatment, FIG. 9a): able to reverse the depression of L-LTP
- neurofibrillary tangles (immunofluorescence staining of p-tau protein) [3]: reduces neurofibrillary tangles
